Several values for one entry are separate records, joined by “and”; a condition that tells them apart may be missing. Equal values may be shown once. Entries after “also recorded” stand apart in the source; their conditions may differ. Read-outs that look alike come from different tables or passages of the source.
Experiments:
rat cochlear hair cells [1] = conditions: for EC50: read-out: EC50±SE, hair cell survival (ototoxicity)
[2] = test system: S. aureus, E. coli, K. pneumoniae, P. aeruginosa strains; test: Antimicrobial breadth and potency (MIC) across 40 bacterial strains; format: cell-based
Excerpt: (§1) The colors represent different species, the numbers in the columns refer to the number of individual strains inhibited, where black=S. aureus, grey=E. coli, blue=K. pneumoniae, white=P. aeruginosa. […] (2B) The MIC values for each strain (diamond symbols) split by species, where Hospital=red, C1=orange, blue=C1a, cyan=C2, green=C2a, purple=C2b (grey scale only). Filled symbols indicate strains with antimicrobial resistance. The box indicates the 25-75 percentiles, stars indicate geometric means, *=P<0.05, **=P<0.01 tested using Mann Whitney U Non-Parametric analysis. […] (2C) The antimicrobial breadths of the impurities relative to a hospital bottle. […] (2D) The MIC values for each strain split by species.
(§2) The antimicrobial activity of the main components of gentamicin were studied relative to a single hospital bottle (gentamicin mixture) from Stanford University Hospital.

P. aeruginosa = test: MIC against P. aeruginosa strains; format: cell-based
Excerpt: as §1, §2

S. aureus = format: cell-based; conditions: for antimicrobial potency relative to hospital bottle: Mann Whitney U Test
Excerpt: as §1, §2

K. pneumoniae = test: MIC against K. pneumoniae strains; format: cell-based; conditions: Mann Whitney U Test
Excerpt: (§3) […]. The colors represent different species, the numbers in the columns refer to the number of individual strains inhibited, where black=S. aureus, grey=E. coli, blue=K. pneumoniae, white=P. aeruginosa. The hospital bottle inhibits 35/40 strains tested, with the C-components inhibiting 31-35 strains. (2B) The MIC values for each strain (diamond symbols) split by species, where Hospital=red, C1=orange, blue=C1a, cyan=C2, green=C2a, purple=C2b (grey scale only). Filled symbols indicate strains with antimicrobial resistance. The box indicates the 25-75 percentiles, stars indicate geometric means, *=P<0.05, **=P<0.01 tested using Mann Whitney U Non-Parametric analysis. […] There are also some differences between individual components in S. aureus and P. aeruginosa. (2C) The antimicrobial breadths of the impurities relative to a hospital bottle. The hospital bottle inhibits 35/40 strains tested, with the impurities Gent B, Gent A, Gent X and G418 inhibiting 15-21 strains. One impurity, Sisomicin inhibited 35/40 strains. (2D) The MIC values for each strain split by species. […].

E. coli = test: MIC against E. coli strains; format: cell-based; conditions: Mann Whitney U Test
Excerpt: as §3

rat cochlear hair cells [3] = test: tissue or blood; conditions: read-out: EC50±SE, hair cell survival (ototoxicity)
[4] = mid-apical region of the cochlea, n>5 per data point, logarithmic function best fit

CN[C@@H]1[C@@H](O)[C@@H](O[C@@H]2[C@@H](O)[C@H](O[C@H]3O[C@H]([C@@H](C)NC)CC[C@H]3N)[C@@H](N)C[C@H]2N)OC[C@]1(C)O [C1, gentamicin C1]
ototoxicity relative to hospital bottle (rat cochlear hair cells [1]): not significantly different from the hospital bottle | EC50 (rat cochlear hair cells [1]; [4]): 755 ± 60 µM | antimicrobial potency among the components [2]: lowest antimicrobial potency | Geomean MIC (P. aeruginosa; P. aeruginosa, n≥8 strains): 1.52 µg/mL | antimicrobial potency relative to hospital bottle (S. aureus; S. aureus): less potent than the hospital bottle; also recorded: less antimicrobial than the hospital bottle | Geomean MIC (S. aureus; S. aureus, n=10 strains): 0.53 µg/mL and 0.54 µg/mL

CN[C@@H]1[C@@H](O)[C@@H](O[C@@H]2[C@@H](O)[C@H](O[C@H]3O[C@H]([C@@H](C)N)CC[C@H]3N)[C@@H](N)C[C@H]2N)OC[C@]1(C)O [C2, gentamicin C2]
ototoxicity among the drug components (rat cochlear hair cells [1]): most ototoxic component | EC50 (rat cochlear hair cells [1]; [4]): 402 ± 38 µM

CN[C@@H]1[C@@H](O)[C@@H](O[C@@H]2[C@@H](O)[C@H](O[C@H]3O[C@H]([C@H](C)N)CC[C@H]3N)[C@@H](N)C[C@H]2N)OC[C@]1(C)O [C2a, gentamicin C2a]
ototoxicity relative to hospital bottle (rat cochlear hair cells [1]): not significantly different from the hospital bottle | EC50 (rat cochlear hair cells [1]; [4]): 614 ± 69 µM

CNC[C@@H]1CC[C@@H](N)[C@@H](O[C@H]2[C@H](O)[C@@H](O[C@H]3OC[C@](C)(O)[C@H](NC)[C@H]3O)[C@H](N)C[C@@H]2N)O1 [C2b, gentamicin C2b]
ototoxicity relative to hospital bottle (rat cochlear hair cells [1]): less ototoxic than the hospital bottle | EC50 (rat cochlear hair cells [1]; [4]): 1200 ± 114 µM

CN[C@@H]1[C@@H](O)[C@@H](O[C@@H]2[C@@H](O)[C@H](O[C@H]3O[C@H]([C@@H](C)O)[C@@H](O)[C@H](O)[C@H]3N)[C@@H](N)C[C@H]2N)OC[C@]1(C)O [G418, geneticin, reference compound]
ototoxicity relative to hospital bottle (rat cochlear hair cells [1]): more ototoxic at lower doses than the hospital but requires a higher dose to kill all hair cells than the hospital

CN[C@@H]1[C@@H](O)[C@@H](O[C@@H]2[C@@H](O)[C@H](O[C@H]3O[C@H](CN)[C@@H](O)[C@H](O)[C@H]3O)[C@@H](N)C[C@H]2N)OC[C@]1(C)O [Gent B]
antimicrobial potency relative to hospital bottle ([2]; all species tested, P<0.05, n≥8 strains): significantly less potent than the hospital bottle

CN[C@@H]1[C@@H](O)[C@@H](O[C@@H]2[C@@H](O)[C@H](O[C@H]3OC(CN)=CC[C@H]3N)[C@@H](N)C[C@H]2N)OC[C@]1(C)O [Sisomicin]
antimicrobial potency relative to hospital bottle (K. pneumoniae): equi-potent to the hospital | ototoxicity relative to hospital bottle (rat cochlear hair cells [1]): more ototoxic than the hospital | number of strains inhibited (antimicrobial breadth) ([2]; 40 strains tested, breadth defined as MIC value ≤4μg/ml): 35/40 | antimicrobial potency relative to hospital bottle (P. aeruginosa; P. aeruginosa, Mann Whitney U Test): more potent than the hospital | antimicrobial potency relative to hospital bottle (E. coli): equi-potent to the hospital | EC50 (rat cochlear hair cells [3]): 212 ± 7 µM | antimicrobial potency relative to hospital bottle (S. aureus; S. aureus): more potent than the hospital

gentamicin C1a
EC50 (rat cochlear hair cells [1]): 816 ± 18 µM | Geomean MIC (P. aeruginosa): 0.71 µg/mL | antimicrobial potency relative to C1 component (P. aeruginosa): more antimicrobial than the C1 component | Geomean MIC (S. aureus): 0.29 µg/mL | antimicrobial potency relative to C1 component (S. aureus): more antimicrobial than the C1 component

From US20220096509A1, “Reformulating Hospital Gentamicin to reduce the risk of hearing loss while maintaining antimicrobial activity” (priority 2019, published 2022)
